Data: US12187773B2, “Modified GIP peptide analogues” (Antag Therapeutics ApS, priority 2018, dated 2025)
*1 amine or outer side, *2 acyl side, *3 side chain or, on linkers, in order; H or OH if unused. Where a SMILES comes first, the peptide text is derived from it. Side-chain parts run from the residue outwards. The star is where a group is joined. C16 diacid = O=C(O)CCCCCCCCCCCCCCC(=O)*; γGlu = O=C(O)[C@H](CCC(=O)[*:2])N[*:1]; AEEA = NCCOCCOCC(=O)O

Columns and labels:
Format in all cases: cell-based
[1] = target: T1, human GIP receptor (Homo sapiens, UniProt P48546); experiment: cAMP accumulation, antagonism (DiscoveRx HitHunter cAMP XS assay); parameters: host or cells: COS-7 (transient, calcium phosphate; pCMV-Script vector); settings: Table 1B, DiscoveRx; for cAMP antagonism, % inhib: COS-7 cells, % inhibition of Emax; for IC50: cAMP antagonism, nM (IC50), transiently transfected COS-7 cells
T1 sequence (P48546 22-466): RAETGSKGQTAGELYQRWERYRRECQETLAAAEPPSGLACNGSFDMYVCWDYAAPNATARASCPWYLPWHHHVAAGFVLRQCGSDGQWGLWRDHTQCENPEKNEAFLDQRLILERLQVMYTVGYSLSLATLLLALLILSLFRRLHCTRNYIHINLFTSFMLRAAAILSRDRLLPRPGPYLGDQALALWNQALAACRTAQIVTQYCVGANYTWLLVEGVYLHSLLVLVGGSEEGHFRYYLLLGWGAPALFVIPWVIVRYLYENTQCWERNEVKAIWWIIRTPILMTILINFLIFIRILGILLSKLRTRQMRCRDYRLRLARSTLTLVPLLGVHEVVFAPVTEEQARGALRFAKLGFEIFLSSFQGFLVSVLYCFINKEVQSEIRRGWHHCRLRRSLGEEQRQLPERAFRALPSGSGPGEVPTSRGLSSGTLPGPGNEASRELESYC
Method: Transient transfected COS-7 cells expressing the human GIP receptor were seeded in white 96-well plates with a density of 3.5*10^4/well. The day after, the cells were washed twice with Hepes buffered saline (HBS) buffer and incubated with HBS and 1 mM 3-isobutyl-1-methylxanthine (IBMX) for 30 min at 37° C. To test for agonistic properties, ligands were added and incubated for 30 min at 37° C. In order to test for antagonistic properties, the cells were preincubated with the antagonists for 10 min prior to the addition of the agonist and subsequent incubated for 20 additional min. The HitHunter™ cAMP XS assay (DiscoveRx) was carried out according to the manufacturer's instructions.
In order to develop a GIP receptor antagonist with improved antagonistic properties, individual amino acid substitutions were conducted on GIP(3-30)NH2 and in particular at positions: 16, 18, 30 or 3, 16, 18, 30. The obtained peptides were lipidated at position 18 directly or via a linker. Both the agonistic and antagonistic profiles of the compounds were tested in cAMP accumulation experiments done in transiently transfected COS-7 cells expressing the human GIP receptor. To investigate if these mutated analogues still retained their antagonistic properties, their ability to inhibit a GIP-mediated cAMP response corresponding to 50-80% of maximum activation was examined.

[2] = target: T1, human GIP receptor; experiment: cAMP antagonism (CisBio cAMP Dynamic 2 HTRF assay); parameters: pCMV-Script vector; settings: Table 1C, CisBio, HEK-293 cells; for IC50: cAMP antagonism, nM (IC50), agonist GIP1-42 at EC50
How it was run: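 Four-parameter fits of cAMP dose-response gave pIC50. cAMP fall was quantified by HTRF competition, ratio 665/620 nm after 60 min at room temperature, against a cAMP standard curve.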

[3] = target: T1, human GIP receptor; experiment: cAMP accumulation, agonism (DiscoveRx HitHunter cAMP XS assay); parameters: host or cells: COS-7 (transient, calcium phosphate; pCMV-Script vector); settings: for cAMP agonism, Emax: Table 1B, DiscoveRx, COS-7 cells; for Emax: COS-7, read-out: cAMP agonism, Emax
How it was run: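 cAMP accumulation measured by HitHunter cAMP XS in COS-7 cells transiently expressing human GIP receptor, after 30 min in HBS with 1 mM IBMX at 37 °C. Antagonists preincubated 10 min before GIP giving 50-80% of maximum, then 20 min more; agonist mode used 30 min ligand exposure.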

[4] = target: T1, human GIP receptor; experiment: cAMP agonism (CisBio cAMP Dynamic 2 HTRF assay); settings: HEK293, read-out: cAMP agonism, % Efficacy, Table 1C, HEK-293 cells
Method: To test for agonistic properties at the GIP receptor, compounds were diluted and added to cells as described above and incubated for 30 min at 37° C. The resulting increase in intracellular cAMP was determined using the CisBio cAMP Dynamic 2 HTRF Assay Kit as described above.

SMILES	cAMP antagonism, % inhib [1]	IC50 [1]	cAMP antagonism, % inhib [2]	IC50 [2]	cAMP agonism, Emax [3]	Emax [4]	Emax [3]
CC[C@H](C)[C@H](NC(=O)[C@H](CO)NC(=O)[C@H](Cc1ccc(O)cc1)NC(=O)[C@H](CC(=O)O)NC(=O)[C@H](CO)NC(=O)[C@@H](NC(=O)[C@H](Cc1ccccc1)NC(=O)[C@@H](NC(=O)CNC(=O)CN)[C@@H](C)O)[C@@H](C)CC)C(=O)N[C@@H](C)C(=O)N[C@@H](CCSC)C(=O)N[C@@H](CC(=O)O)C(=O)N[C@@H](CCCNC(=N)N)C(=O)N[C@H](C(=O)N[C@@H](CCCCNC(=O)CCCCCCCCCCCCCCC(=O)O)C(=O)N[C@@H](CCC(N)=O)C(=O)N[C@@H](CCC(N)=O)C(=O)N[C@@H](CC(=O)O)C(=O)N[C@@H](Cc1ccccc1)C(=O)N[C@H](C(=O)N[C@@H](CC(N)=O)C(=O)N[C@@H](Cc1c[nH]c2ccccc12)C(=O)N[C@@H](CC(C)C)C(=O)N[C@@H](CC(C)C)C(=O)N[C@@H](C)C(=O)N[C@@H](CCC(N)=O)C(=O)N[C@@H](CCCNC(=N)N)C(N)=O)C(C)C)[C@@H](C)CC [AT496] (H-GGTFISDYSIAMDRIK(C16 diacid)QQDFVNWLLAQR-NH2; N-terminus assumed)	100%	12 nM	100%	39.8 nM	No Agonism	0%	–
CC[C@H](C)[C@H](NC(=O)[C@H](CO)NC(=O)[C@H](Cc1ccc(O)cc1)NC(=O)[C@H](CC(=O)O)NC(=O)[C@H](CO)NC(=O)[C@@H](NC(=O)[C@H](Cc1ccccc1)NC(=O)[C@@H](NC(=O)CNC(=O)CN)[C@@H](C)O)[C@@H](C)CC)C(=O)N[C@@H](C)C(=O)N[C@@H](CCSC)C(=O)N[C@@H](CC(=O)O)C(=O)N[C@@H](CCCNC(=N)N)C(=O)N[C@H](C(=O)N[C@@H](CCCCNC(=O)CC[C@H](NC(=O)CCCCCCCCCCCCCCC(=O)O)C(=O)O)C(=O)N[C@@H](CCC(N)=O)C(=O)N[C@@H](CCC(N)=O)C(=O)N[C@@H](CC(=O)O)C(=O)N[C@@H](Cc1ccccc1)C(=O)N[C@H](C(=O)N[C@@H](CC(N)=O)C(=O)N[C@@H](Cc1c[nH]c2ccccc12)C(=O)N[C@@H](CC(C)C)C(=O)N[C@@H](CC(C)C)C(=O)N[C@@H](C)C(=O)N[C@@H](CCC(N)=O)C(=O)N[C@@H](CCCNC(=N)N)C(N)=O)C(C)C)[C@@H](C)CC [AT502] (HELM PEPTIDE1{G.G.T.F.I.S.D.Y.S.I.A.M.D.R.I.K.Q.Q.D.F.V.N.W.L.L.A.Q.R.[am]}|PEPTIDE2{[O=C(O)CCCCCCCCCCCCCCC(=O)[*:2]].[gGlu]}$PEPTIDE1,PEPTIDE2,16:R3-2:R2$$$V2.0; N-terminus assumed)	85%	52 nM	65%	–	–	13%	5%
CC[C@H](C)[C@H](NC(=O)[C@H](CO)NC(=O)[C@H](Cc1ccc(O)cc1)NC(=O)[C@H](CC(=O)O)NC(=O)[C@H](CO)NC(=O)[C@@H](NC(=O)[C@H](Cc1ccccc1)NC(=O)[C@@H](NC(=O)CNC(=O)[C@@H](N)CO)[C@@H](C)O)[C@@H](C)CC)C(=O)N[C@@H](C)C(=O)N[C@@H](CCSC)C(=O)N[C@@H](CC(=O)O)C(=O)N[C@@H](CCCNC(=N)N)C(=O)N[C@H](C(=O)N[C@@H](CCCCNC(=O)COCCOCCNC(=O)COCCOCCNC(=O)CC[C@H](NC(=O)CCCCCCCCCCCCCCC(=O)O)C(=O)O)C(=O)N[C@@H](CCC(N)=O)C(=O)N[C@@H](CCC(N)=O)C(=O)N[C@@H](CC(=O)O)C(=O)N[C@@H](Cc1ccccc1)C(=O)N[C@H](C(=O)N[C@@H](CC(N)=O)C(=O)N[C@@H](Cc1c[nH]c2ccccc12)C(=O)N[C@@H](CC(C)C)C(=O)N[C@@H](CC(C)C)C(=O)N[C@@H](C)C(=O)N[C@@H](CCC(N)=O)C(=O)N[C@@H](CCCNC(=N)N)C(N)=O)C(C)C)[C@@H](C)CC [AT516] (H-SGTFISDYSIAMDRIK([AEEA-AEEA-γGlu-C16 diacid])QQDFVNWLLAQR-NH2; N-terminus assumed)	100%	31 nM	88%	–	No Agonism	0%	–
CC[C@H](C)[C@H](NC(=O)[C@H](CO)NC(=O)[C@H](Cc1ccc(O)cc1)NC(=O)[C@H](CC(=O)O)NC(=O)[C@H](CO)NC(=O)[C@@H](NC(=O)[C@H](Cc1ccccc1)NC(=O)[C@@H](NC(=O)CNC(=O)CN)[C@@H](C)O)[C@@H](C)CC)C(=O)N[C@@H](C)C(=O)N[C@@H](CCSC)C(=O)N[C@@H](CC(=O)O)C(=O)N[C@@H](CCCNC(=N)N)C(=O)N[C@H](C(=O)N[C@@H](CCCCNC(=O)COCCOCCNC(=O)COCCOCCNC(=O)CC[C@H](NC(=O)CCCCCCCCCCCCCCC(=O)O)C(=O)O)C(=O)N[C@@H](CCC(N)=O)C(=O)N[C@@H](CCC(N)=O)C(=O)N[C@@H](CC(=O)O)C(=O)N[C@@H](Cc1ccccc1)C(=O)N[C@H](C(=O)N[C@@H](CC(N)=O)C(=O)N[C@@H](Cc1c[nH]c2ccccc12)C(=O)N[C@@H](CC(C)C)C(=O)N[C@@H](CC(C)C)C(=O)N[C@@H](C)C(=O)N[C@@H](CCC(N)=O)C(=O)N[C@@H](CCCNC(=N)N)C(N)=O)C(C)C)[C@@H](C)CC [AT514] (H-GGTFISDYSIAMDRIK([AEEA-AEEA-γGlu-C16 diacid])QQDFVNWLLAQR-NH2; N-terminus assumed)	80%	–	86%	31.6 nM	No Agonism	0%	–
CC[C@H](C)[C@H](NC(=O)[C@H](CO)NC(=O)[C@H](Cc1ccc(O)cc1)NC(=O)[C@H](CC(=O)O)NC(=O)[C@H](CO)NC(=O)[C@@H](NC(=O)[C@H](Cc1ccccc1)NC(=O)[C@@H](NC(=O)CNC(=O)CN)[C@@H](C)O)[C@@H](C)CC)C(=O)N[C@@H](C)C(=O)N[C@@H](CCSC)C(=O)N[C@@H](CC(=O)O)C(=O)N[C@@H](CCCNC(=N)N)C(=O)N[C@H](C(=O)N[C@@H](CCCCNC(=O)COCCOCCNC(=O)CC[C@H](NC(=O)CCCCCCCCCCCCCCC(=O)O)C(=O)O)C(=O)N[C@@H](CCC(N)=O)C(=O)N[C@@H](CCC(N)=O)C(=O)N[C@@H](CC(=O)O)C(=O)N[C@@H](Cc1ccccc1)C(=O)N[C@H](C(=O)N[C@@H](CC(N)=O)C(=O)N[C@@H](Cc1c[nH]c2ccccc12)C(=O)N[C@@H](CC(C)C)C(=O)N[C@@H](CC(C)C)C(=O)N[C@@H](C)C(=O)N[C@@H](CCC(N)=O)C(=O)N[C@@H](CCCNC(=N)N)C(=O)O)C(C)C)[C@@H](C)CC [AT269] (HELM PEPTIDE1{G.G.T.F.I.S.D.Y.S.I.A.M.D.R.I.K.Q.Q.D.F.V.N.W.L.L.A.Q.R}|PEPTIDE2{[O=C(O)CCCCCCCCCCCCCCC(=O)[*:2]].[gGlu].[O=C(COCCOCCN[*:1])[*:2]]}$PEPTIDE1,PEPTIDE2,16:R3-3:R2$$$V2.0; N-terminus assumed)	–	91 nM	–	–	–	0%	12%
